Measurements: patent US9637501B2, “Pyridin-3-yl acetic acid macrocycles as inhibitors of human immunodeficiency virus replication” (priority 2014, dated 2017)
Where two headings read alike, the source gives them in different places.

Experiments:
[1] = rcm bond, Hoveyda-Grubbs catalyst 2nd generation, 1,2-dichloroethane, 3 steps
[2] = system: recombinant NL-RLuc virus (NL4-3 with Renilla Luciferase gene) in MT-2 cells; assay: Inhibition of HIV replication (NL-RLuc virus, luciferase readout in MT-2 cells); type: cell-based; conditions: 5 days of incubation, 10% FBS
From the text: Inhibition of HIV Replication:
A recombinant NL-RLuc proviral clone was constructed in which a section of the nef gene from NL4-3 was replaced with the Renilla Luciferase gene. This virus is fully infectious and can undergo multiple cycles of replication in cell culture. In addition, the luciferous reporter provides a simple and easy method for quantitating the extent of virus growth and consequently, the antiviral activity of test compounds. The plasmid pNLRLuc contains the proviral NL-Rluc DNA cloned into pUC18 at the PvuII site. The NL-RLuc virus was prepared by transfection of 293T cells with the plasmid pNLRLuc. Transfections were performed using the LipofectAMINE PLUS kit from Invitrogen (Carlsbad, Calif.) according to the manufacturer and the virus generated was titered in MT-2 cells. For susceptibility analyses, the titrated virus was used to infect MT-2 cells in the presence of compound, and after 5 days of incubation, cells were processed and quantitated for virus growth by the amount of expressed luciferase. Assay media was RPMI 1640 supplemented with 10% heat inactivated fetal bovine serum (FBS), 100 units/ml penicillin G/100 units/ml streptomycin, 10 mM HEPES buffer pH 7.55 and 2 mM L-glutamine. The results from at least 2 experiments were used to calculate the EC50 values. Luciferase was quantitated using the Dual Luciferase kit from Promega (Madison, Wis.). Susceptibility of viruses to compounds was determined by incubation in the presence of serial dilutions of the compound. The 50% effective concentration (EC50) was calculated by using the exponential form of the median effect equation where (Fa)=1/[1+(ED50/drug conc.)^m] (Johnson V A, Byington R T. Infectivity Assay. In Techniques in HIV Research. ed. Aldovini A, Walker B D. 71-76. New York: Stockton Press. 1990).

| Compound | EC50 [2] | EC50 ([2]; Renilla, NL43, 120 h) | also measured |
| --- | --- | --- | --- |
| Cc1nc(C)c([C@H](OC(C)(C)C)C(=O)O)c2c1-c1ccc(cc1)OC(c1ccccc1)CCCCOC1(C)CCN2CC1 (stereo partly shown) |  |  | ring closure, yield of all isomers ([1]; from C=CCOC1(C)CCN(c2c(-c3ccc(OC(CC=C)c4ccccc4)cc3)c(C)nc(C)c2[C@H](OC(C)(C)C)C(=O)OCC)CC1, 70.0 °C, 1.0 h): 63.8% |
| Cc1nc(C)c([C@H](OC(C)(C)C)C(=O)O)c2c1-c1ccc(cc1)OC(c1ccc(Cl)cc1)CCCCOC1(C)CCN2CC1 (stereo partly shown) |  |  | ring closure, yield of all isomers ([1]; from C=CCOC1(C)CCN(c2c(-c3ccc(OC(CC=C)c4ccc(Cl)cc4)cc3)c(C)nc(C)c2[C@H](OC(C)(C)C)C(=O)OCC)CC1, 6.25 mM, 70.0 °C, 0.5 h): 59.1% |
| Cc1nc(C)c([C@H](OC(C)(C)C)C(=O)O)c2c1-c1ccc(cc1)OC(c1ccc(Cl)cc1)CCCCOC1(C)CCN2CC1 (single isomer, unassigned) [Example 6] | 0.496 µM |  |  |
| Cc1nc(C)c([C@H](OC(C)(C)C)C(=O)O)c2c1-c1ccc(cc1)OC(c1ccccc1)CCCCOC1(C)CCN2CC1 (single isomer, unassigned) [Example 4] | 0.349 µM |  |  |
| Cc1cc(CN2CCCCCCOC3(C)CCN(CC3)c3c(c(C)nc(C)c3[C@H](OC(C)(C)C)C(=O)O)-c3ccc(cc3)C2)ccc1F [Example 1, (2S)-2-(tert-Butoxy)-2-{13-[(4-fluoro-3-methylphenyl)methyl]-4,6,21-trimethyl-20-oxa-1,5,13-triazatetracyclo[19.2.2.2^8,11.0^2,7]heptacosa-2,4,6,8,10,26-hexaen-3-yl}acetic acid] |  | 0.087 µM | ring closure, yield of all isomers ([1]; from C=CCCCN(Cc1ccc(-c2c(C)nc(C)c([C@H](OC(C)(C)C)C(=O)OCC)c2N2CCC(C)(OCC=C)CC2)cc1)Cc1ccc(F)c(C)c1, 70.0 °C, 0.83 h): 58.9% |
| Cc1cc(CN2CCCCCOC3(C)CCN(CC3)c3c(c(C)nc(C)c3[C@H](OC(C)(C)C)C(=O)O)-c3ccc(cc3)C2)ccc1F [Example 2, (2S)-2-(tert-Butoxy)-2-{13-[(4-fluoro-3-methylphenyl)methyl]-4,6,20-trimethyl-19-oxa-1,5,13-triazatetracyclo[18.2.2.2^8,11.0^2,7]hexacosa-2,4,6,8,10,25-hexaen-3-yl}acetic acid] |  | 0.249 µM | ring closure, yield of all isomers ([1]; from C=CCOC1(C)CCN(c2c(-c3ccc(CN(CC/C=C\CC)Cc4ccc(F)c(C)c4)cc3)c(C)nc(C)c2[C@H](OC(C)(C)C)C(=O)OCC)CC1, 4.35 mM, 75.0 °C, 1.33 h): 17.2% |
| Cc1nc(C)c([C@H](OC(C)(C)C)C(=O)O)c2c1-c1ccc(cc1)OC(c1ccccc1)CCCCOC1(C)CCN2CC1 (single isomer, unassigned) [Example 3] | 0.854 µM |  |  |
| Cc1nc(C)c([C@H](OC(C)(C)C)C(=O)O)c2c1-c1ccc(cc1)OC(c1ccc(Cl)cc1)CCCCOC1(C)CCN2CC1 (single isomer, unassigned) [Example 5] |  | 0.466 µM |  |
